Consider 17 compounds from US6559185B2, “Nitromethyl ketone compounds having aldose reduction inhibiting properties and methods for their use” (Merck Patent GmbH, priority 1997, dated 2003).

The target of one series is T1, aldose reductase (Rattus norvegicus, UniProt P07943).
T1 construct: The aldose reductase used is obtained from male Wistar rat crystalline lenses; from tissue; host or cells: male Wistar rat crystalline lenses
Briefly: Study in vitro: inhibition of aldose reductase. The series is classed as biochemical. As to conditions: enzyme from male Wistar rat crystalline lenses; L-glyceraldehyde, NADPH disappearance at 340 nm. As to the method: 1) Study in Vitro: Inhibition of Aldose Reductase
The aldose reductase used is obtained from male Wistar rat crystalline lenses according to a modification of the method of S. HAYMAN et al. (Journal of Biological Chemistry 240, p., 877, 1965). The enzymatic extract is diluted in a phosphate buffer in the presence of NADPH and various concentrations of the test products. The reaction is initiated, with L-glyceraldehyde and the reaction rate is measured by monitoring the disappearance of NADPH by spectrophotometry at 340 nm. The reaction rate is calculated for each product concentration and then the concentration necessary for a 50% reduction in the reaction rate (IC50) is evaluated by linear interpolation.

Series [1] deals with sorbitol level in the sciatic nerves. Briefly: Study in vivo: reduction of sorbitol accumulation in sciatic nerves of streptozotocin-diabetic rats. As to conditions: 10 mg/kg/d oral, 4, 30 and 52 h after streptozotocin (60 mg/kg i.v.); sciatic nerve sorbitol 18 h after last dose; diabetic male Wistar rats. As to the method:
2) Study in Vivo: Reduction of Sorbitol Accumulation
200 to 250 g male Wistar rats are made diabetic by intravenous injection of streptozotocin (60 mg/kg). They then receive an oral treatment of the test products, in the form of a suspension, 4 hours, 30 hours and 52 hours after the injection of streptozotocin. Eighteen hours after the last oral treatment, the rats are stunned and decapitated and then their sciatic nerves are removed. After extraction, the sorbitol level in the nerves is measured according to the enzymatic method described by H. U. BERGMEYER (Methods of enzymatic analysis. H. U. BERGMEYER ed., Academic Press New York 3, p. 1323, 1974).
The percentage protection is calculated for each product relative to the batch of diabetic animals taking into account the sorbitol level in the sciatic nerves of nondiabetic rats.

As for `N#Cc1ccccc1C(=O)C[N+](=O)[O-]`, the melting point (commonly the temperature of the solid-liquid transition) lay within 147 to 149 °C.
In turn, `CCc1ccccc1C(=O)C[N+](=O)[O-]` came in with a melting point of 62 to 63 °C.
Turning to `O=C(C[N+](=O)[O-])c1ccccc1C(F)(F)F`, the melting point fell in the range of 55 to 57 °C.
Compound `CCOc1ccccc1C(=O)C[N+](=O)[O-]` had a melting point of 145 to 148 °C.
On the same count and under the same terms, to `CC(C)Oc1ccccc1C(=O)C[N+](=O)[O-]` belongs 78 to 80 °C.
As to `O=C(C[N+](=O)[O-])c1ccccc1OC(F)(F)F` [Example 1, Nitromethyl 2-Trifluoromethoxyphenyl Ketone], on aldose reductase, the IC50 (usually the concentration at which inhibition is half-maximal) came out at 41 nM. Besides, the “Protection against increase in sorbitol after administration 10 mg/kg/d (%)” value (shortened to “Protection against increase in sorbitol … (%)”) in series [1] was found to be 70%.
`CCCCCC(=O)Nc1ccc(C(=O)C[N+](=O)[O-])c(Cl)c1` [Example 20, N-[3-chloro-4-nitromethylcarbonylphenyl]hexaneamide] yielded a melting point of 60 to 63 °C.
Take `CC(C(=O)Nc1ccc(C(=O)C[N+](=O)[O-])c(Cl)c1)c1ccccc1` (stereo not drawn) [Example 23, N-[3-Chloro-4-nitromethylcarbonylphenyl]-2-phenylpropaneamide]: the melting point fell in the range of 136 to 137 °C. On aldose reductase, this compound showed an IC50 of 7 nM. In addition, the “Protection against increase in sorbitol … (%)” value in series [1] was 40%.
`O=C(Cc1ccccc1)Nc1ccc(C(=O)C[N+](=O)[O-])c(Cl)c1` [Example 24, N-[3-Chloro-4-nitromethylcarbonylphenyl]phenylacetamide] returned a melting point of 121 to 124 °C. For the same compound, half-maximal inhibition against aldose reductase (IC50) required 7 nM. The “Protection against increase in sorbitol … (%)” value in series [1] is reported as 45%.
As to `O=C(Cc1ccccc1Cl)Nc1ccc(C(=O)C[N+](=O)[O-])c(Cl)c1` [Example 28, 2-Chloro-N-[3-chloro-4-nitromethylcarbonylphenyl]phenylacetamide], on aldose reductase, the IC50 turned out to be 7 nM. In series [1], the “Protection against increase in sorbitol … (%)” value came out at 58%.
Regarding `O=C(Cc1ccccc1C(F)(F)F)Nc1ccc(C(=O)C[N+](=O)[O-])c(Cl)c1` [Example 30, N-[3-Chloro-4-nitromethylcarbonylphenyl]-2-trifluoromethylphenylacetamide], the melting point fell in the range of 160 to 162 °C. This compound gave an IC50 at aldose reductase of 7 nM. Besides, in series [1], the “Protection against increase in sorbitol … (%)” value came to 61%.
`CC(=O)Nc1cccc(C(=O)C[N+](=O)[O-])c1Cl` [Example 34, N-[2-Chloro-3-nitromethylcarbonylphenyl]acetamide] gave a melting point of 140 to 142 °C.
Still for that read-out and setting: in the case of `O=C(C[N+](=O)[O-])c1cc(NS(=O)(=O)c2ccccc2)ccc1Cl` [Example 38, N-[4-Chloro-3-nitromethylcarbonylphenyl]benzenesulfonamide] it was 152 to 154 °C.
`Cc1ccccc1CC(=O)Nc1ccc(C(=O)C[N+](=O)[O-])c(Cl)c1` [Example 43, N-[3-Chloro-4-nitromethylcarbonylphenyl]-2-methylphenylacetamide] showed an IC50 on aldose reductase of 7 nM. The “Protection against increase in sorbitol … (%)” value in series [1] came to 70%.
On the same counts, the results for `Cc1ccccc1CC(=O)Nc1ccc(C(=O)C[N+](=O)[O-])c(C)c1` [Example 59, N-[3-Methyl-4-nitromethylcarbonylphenyl]-2-methylphenylacetamide] are 6 nM and 52%.
Turning to `Cc1ccccc1CC(=O)Nc1ccc(C(=O)C[N+](=O)[O-])cc1Br` [Example 60, N-[2-Bromo-4-nitromethylcarbonylphenyl]-2-methylphenylacetamide], the melting point lay within 125 to 127 °C.
With `O=C(C[N+](=O)[O-])c1ccc(Sc2ccccc2)cc1Cl` [Example 64, Nitromethyl 2-Chloro-4-phenylthiophenyl Ketone], the melting point is 77 to 78 °C.
